Target: T1, BRD4 (D1); BRD4 (BD1) (Homo sapiens, UniProt O60885)
T1 construct: first bromodomain (D1/BD1), purchased from Biogenie, Canada
Assay: AlphaScreen peptide displacement assay
Type: binding

IC50: 999 nM
Compound: CCC1Oc2cc(NS(=O)(=O)c3ccccc3OC)ccc2NC1=O (stereo not shown) [compound 5, N-(2-ethyl-3-oxo-3,4-dihydro-2H-benzo[b] [1, 4]oxazin-7-yl)-2-methoxybenzenesulfonamide]

Source: publication PMC6822579, “A novel benzoxazinone derivative YLT-LL-11 inhibits diffuse large B-cell lymphoma growth via inducing cell cycle arrest and apoptosis” (Bioscience Reports, 2019)
